Reference: ChEMBL document CHEMBL6153171, “Redefining Antifungal Treatment: The Innovation of Metal-Based Compounds” (2025)
In brackets after ≈: the same amount, converted by molar mass. Each block holds one compound with its values, some of them ahead of it.

Key:
Type in all cases: functional
Candida tropicalis [1] = assay: Antifungal activity against Candida tropicalis ATCC 1369 assessed as inhibition of fungal growth by CLSI protocol based microdilution method
Candida tropicalis [2] = assay: Anti-fungal activity against Candida tropicalis assessed as inhibition of fungal growth
Trichophyton violaceum = assay: Antifungal activity against Trichophyton violaceum
Epidermophyton floccosum = assay: Antifungal activity against Epidermophyton floccosum
Nakaseomyces glabratus = assay: Antifungal activity against Candida glabrata assessed as reduction in fungal growth; design: concentration or dose not given beside the values
Candida albicans [3] = assay: Antifungal activity against Candida albicans ATCC 10231 assessed as growth inhibition measured after 48 hrs by CLSI based method
Candida albicans [4] = assay: Antifungal activity against Candida albicans ATCC 10231 assessed as fungal growth inhibition incubated for 24 hrs by CLSI protocol based microbroth dilution assay
[5] = test system: Trichophyton interdigitale; assay: Antifungal activity against Trichophyton interdigitale
Trichophyton rubrum = assay: Antifungal activity against Trichophyton rubrum assessed as fungal growth inhibition incubated for 48 hrs by microplate reader assay
[6] = test system: Trichophyton mentagrophytes; assay: Antifungal activity against Trichophyton mentagrophytes
Trichophyton tonsurans = assay: Antifungal activity against Trichophyton tonsurans
Candida albicans [7] = assay: Antifungal activity against Candida albicans assessed as reduction in microbial growth
Candida albicans [8] = assay: Antifungal activity against fluconazole-resistant Candida albicans ATCC 10213 assessed as inhibition of fungal growth incubated for 48 hrs by liquid medium dilution method
Candida albicans [9] = assay: Antifungal activity against fluconazole-resistant Candida albicans MFBF 11100 assessed as inhibition of fungal growth incubated for 48 hrs by liquid medium dilution method
[10] = Antifungal activity against Cryptococcus gattii VGI ATCC 14116 assessed as reduction in fungal growth incubated for 72 hrs by liquid based microdilution method
Cryptococcus neoformans [11] = assay: Antifungal activity against Cryptococcus neoformans ATCC 34877 assessed as reduction in fungal growth incubated for 72 hrs by liquid based microdilution method
[12] = Antifungal activity against Cryptococcus gattii VGI ATCC LMM 818 assessed as reduction in fungal growth incubated for 72 hrs by liquid based microdilution method
Cryptococcus neoformans [13] = assay: Antifungal activity against Cryptococcus neoformans H99 assessed as reduction in fungal growth incubated for 48 hrs by liquid based microdilution method
Cryptococcus neoformans [14] = assay: Antifungal activity against Cryptococcus neoformans ATCC 34877 assessed as reduction in fungal growth incubated for 48 hrs by liquid based microdilution method
Candida albicans [15] = assay: Antifungal activity against Candida albicans assessed as fungal growth inhibition
Aspergillus flavus [16] = assay: Antifungal activity against Aspergillus flavus assessed as fungal growth inhibition
Aspergillus flavus [17] = assay: Antifungal activity against Aspergillus flavus assessed as reduction in fungal growth incubated for 24 hrs by two-fold serial dilution method; design: scale not given: the % may be the effect or the level left
Candida albicans [18] = assay: Antifungal activity against Candida albicans ATCC 2091 assessed as reduction in fungal growth
Microsporum canis = assay: Antifungal activity against Microsporum canis assessed as inhibition of fungal growth; design: scale not given: the % may be the effect or the level left
Candida albicans [19] = assay: Antifungal activity against Candida albicans assessed as fungal growth inhibition at 5 ug/ml incubated for 24 hrs by CLSI protocol based microbroth dilution assay relative to control; design: scale not given: the % may be the effect or the level left; settings: dose 5 µg/ml
Candida albicans [20] = assay: Antifungal activity against Candida albicans
Aspergillus flavus [21] = assay: Antifungal activity against Aspergillus flavus
Aspergillus flavus [22] = assay: Antifungal activity against Aspergillus flavus ATCC 16870 assessed as inhibition of growth incubated for 48 hrs by two-fold serial dilution method
Candida albicans [23] = assay: Antifungal activity against Candida albicans SC5314 assessed as reduction in fungal growth incubated for 72 hrs by broth micro-dilution method

MIC (Trichophyton violaceum): 26.9 µM (≈ 6.25 µg/mL) | MIC (Epidermophyton floccosum): 26.9 µM (≈ 6.25 µg/mL)
SMILES: c1ccc(-c2ccc(-c3ccccn3)nc2)cc1

MIC (Candida albicans [3]): 10.7 µM (≈ 3.37 µg/mL)
SMILES: C/C(=N\NC(=S)Nc1ccc([N+](=O)[O-])cc1)c1ccccn1

MIC [5]: 25 mg/L (≈ 119 µM) | MIC (Trichophyton rubrum): 25 mg/L (≈ 119 µM) | MIC [6]: 25 mg/L (≈ 119 µM) | MIC (Trichophyton tonsurans): 25 mg/L (≈ 119 µM)
SMILES: O=C(O)c1c(O)c(F)c(F)c(F)c1F

MIC (Candida albicans [7]): 50 mg/L
SMILES: O=C(O)c1cc(F)c(F)c(F)c1O

MIC90 (Cryptococcus neoformans [11]): 52 µM (≈ 10.9 µg/mL) | MIC90 [12]: 52 µM (≈ 10.9 µg/mL) | MIC90 (Cryptococcus neoformans [14]): 2.01 µM (≈ 0.42 µg/mL)
SMILES: CNC(=S)N/N=C(\N)c1ccccn1

MIC (Candida albicans [15]): 233 µM (≈ 53.4 µg/mL) | MIC (Aspergillus flavus [16]): 226 µM (≈ 51.7 µg/mL)
SMILES: O=c1cc(O)c2c(=O)[nH]c3ccccc3c2o1

MIC (Candida albicans [18]): 12.5 mg/L (≈ 42.2 µM)
SMILES: O=C1N[C@@H](Cc2ccc(/N=C/c3ccccc3O)cc2)CO1

MIC (Candida albicans [18]): 12.5 mg/L (≈ 45.6 µM)
SMILES: CNCCC/N=C/c1c(O)ccc2c(C)cc(=O)oc12

MIC (Candida albicans [20]): 50 mg/L (≈ 189 µM) | MIC (Aspergillus flavus [21]): 6.25 mg/L (≈ 23.6 µM) | MIC (Aspergillus flavus [22]): 6.25 mg/L (≈ 23.6 µM) | MIC (Candida albicans [23]): 6.25 mg/L (≈ 23.6 µM)
SMILES: Oc1ccccc1/N=N/c1ccc(O)c2ccccc12

MIC (Candida albicans [18]): 12.5 mg/L (≈ 44.9 µM)
SMILES: Oc1ccccc1/C=N/c1ccc(Cn2cncn2)cc1

More lines, now with the values behind:

SMILES: Cc1ccc(-c2ccc(-c3ccccn3)nc2)cc1
MIC (Candida tropicalis [1]): ≤ 20.4 µM | MIC (Candida tropicalis [2]): ≤ 12.7 µM

SMILES: Cc1ccc(S(=O)(=O)Nc2ncccn2)cc1
Activity (Nakaseomyces glabratus): 53%

SMILES: C/C(=N\NC(=S)Nc1ccc(I)cc1)c1ccccn1
MIC (Candida albicans [3]): 10.7 µM (≈ 4.24 µg/mL) | MIC (Candida albicans [4]): 6.2 µM (≈ 2.46 µg/mL)

SMILES: NS(=O)(=O)c1ccc(/N=C/c2cc(Cl)ccc2O)cc1
Activity (Nakaseomyces glabratus): 47%

SMILES: COc1ccc(/C=N/NC(=O)c2cccnc2)c(O)c1
IC90 (Candida albicans [8]): 0.18 µM | IC90 (Candida albicans [9]): 0.1 µM

SMILES: NC(=S)N/N=C(\N)c1ccccn1
MIC90 [10]: 26.3 µM (≈ 5.13 µg/mL) | MIC90 (Cryptococcus neoformans [11]): 26.3 µM (≈ 5.13 µg/mL) | MIC90 [12]: 52.5 µM (≈ 10.3 µg/mL) | MIC90 (Cryptococcus neoformans [13]): 13.1 µM (≈ 2.55 µg/mL)

SMILES: CCNC(=S)N/N=C(\N)c1ccccn1
MIC90 (Cryptococcus neoformans [13]): 13.1 µM (≈ 2.92 µg/mL)

SMILES: CCCN(CCC)C(=S)NC(=O)c1ccc(Br)o1
Activity (Aspergillus flavus [17]): 52% | Activity (Nakaseomyces glabratus): 42%

SMILES: CCN(C(=S)NC(=O)c1ccc(Br)o1)C(C)C
Activity (Aspergillus flavus [17]): 50%

SMILES: CCCN(CCC)C(=S)NC(=O)c1ccc(C)s1
Activity (Microsporum canis): 63%

SMILES: CCCN(CCC)C(=S)NC(=O)c1cccs1
Activity (Candida albicans [19]): 50%

SMILES: CCN(C(=S)NC(=O)c1cccs1)C(C)C
Activity (Candida albicans [19]): 53% | Activity (Nakaseomyces glabratus): 43%

SMILES: CCN(C(=S)NC(=O)c1ccc(C)s1)C(C)C
Activity (Aspergillus flavus [17]): 57% | Activity (Nakaseomyces glabratus): 62%
